# Laboratory results as given in patent publication US9132138B2, “Method for the treatment of multiple sclerosis” (CASI Pharmaceuticals, Inc., priority 2012, dated 2015).
# Key:
# activated T cells = assay: Quantitative real time PCR of mRNAs in activated T cells; type: cell-based, C57/BL6 mice
# NFATc1 = NFATc1 nuclear translocation by immunoblotting of nuclear fractions; type: cell-based, C57/BL6 mice
# Method: FIG. 4A, purified T cells pre-treated with 2ME2 (50 μM) were stimulated with PMA/iono for the indicated times. Whole cell lysates were subjected to immunoblotting to detect the indicated proteins. FIG. 4B, nuclear lysates were analyzed by EMSA to detect DNA binding to NF-κB or AP-1. FP, free probe. FIG. 4C, purified T cells or B cells were pre-treated with vehicle (−) or 50 μM 2ME2 (+) and were stimulated with PMA/iono for 30 or 60 minutes (left), or with anti-CD3/28 or anti-IgM/CD40 for 24 hours (right). Nuclear fractions of lymphocytes were analyzed by immunoblotting to detect nuclear translocation of NFATc1. Lamin A, nuclear protein loading control. NS; non-specific band. For FIGS. 4A-4C, data are representative of at least two independent experiments. FIG. 4D, stably transfected NFAT and NF-κB Jurkat luciferase reporter cell lines were preincubated with 2ME2 for 30 minutes, and stimulated via crosslinking of anti-CD3/28 antibodies with goat anti-mouse antibodies (GaM). 5 hours later, secreted luciferase activity indicates relative transcriptional activity. Data is reported as normalized luciferase activity and is representative of 3 independent experiments.
# T or B cells pre-incubated with vehicle or 2ME2 (50 μM) were stimulated with PMA (10 ng/ml)+iono (50 ng/ml); plate-bound anti-CD3 (30 ng/ml)+anti-CD28 (100 ng/ml); or anti-IgM (1 μg/ml)+anti-CD40 (1 μg/ml). Nuclear extracts (5 μg protein) were immunoblotted with anti-NFATc1 (clone 7A6, Santa Cruz) and anti-Lamin A (clone H-102, Santa Cruz).
# human PBL [1] = assay: Proliferation of human PBMC/PBL activated with anti-CD3/28 (3H-thymidine); type: cell-based; conditions: anti-CD3/28 antibodies, 24 or 48 hours
# Method: FIGS. 2A-2E, show proliferation and activation of T cells are inhibited by 2ME2. FIG. 2A, CD4^+ T cells were pre-treated with the indicated concentrations of 2ME2 and stimulated with plate-bound anti-CD3/28 or PMA/iono. Proliferation was assayed 24 hours (left) or 48 hours (right) later by 3H-thymidine incorporation. FIG. 2B, CD4^+ and CD8^+ T cells were stimulated with anti-CD3/28 in the presence of increasing concentrations of 2ME2. CD25 expression was assessed at 6 hours or 24 hours post-stimulation by flow cytometry. FIG. 2C, Quantification of CD25 expression in purified CD4^+ T cells pre-treated with increasing concentrations of 2ME2, and stimulated with anti CD3/28 or PMA/iono for 6 or 24 hours. […] Viability was determined 24 hours or 48 hours post-stimulation by flow cytometry. […] Proliferation was determined 24 hours or 48 hours later by 3H-thymidine incorporation. […]
# Purified CD4^+ T cells were stimulated with plate-bound anti-CD3 (clone 2C11, BD, 10 ng/ml) plus anti-CD28 (clone 37.51, BD, 100 ng/ml). […] CD25 and CD69 expression was determined by flow cytometry (FACSCanto II, BD) and analyzed using FloJo software (Treestar Inc). Proliferation was assessed by 3H-thymidine incorporation. Viability and upregulation of cell surface markers on activated T cells were assessed by flow cytometry using Annexin V and propridium iodide. […]
# Th17 cells = assay: Intracellular cytokine staining of in vitro differentiated Th17 cells; type: cell-based, C57/BL6 mice
# human PBL [2] = assay: CD25 expression and cytokine production by CD3/28-stimulated human PBL; type: cell-based
# Method: Purified CD4^+ T cells were stimulated with plate-bound anti-CD3 (clone 2C11, BD, 10 ng/ml) plus anti-CD28 (clone 37.51, BD, 100 ng/ml). Purified B220+ B cells were stimulated with anti-IgM (Jackson, 5 μg/ml), anti-CD40 (clone 3/20, BD, 5 μg/ml) or LPS (Sigma, 20 μg/ml) for the times indicated in FIG. 3. CD25 and CD69 expression was determined by flow cytometry (FACSCanto II, BD) and analyzed using FloJo software (Treestar Inc). Proliferation was assessed by 3H-thymidine incorporation. Viability and upregulation of cell surface markers on activated T cells were assessed by flow cytometry using Annexin V and propridium iodide. Human Peripheral blood mononuclear cells (PBMC) were isolated using Mono-Poly Resolving Medium (MP Biomedical) according to the manufacturer's protocols and activated with anti-CD3 (clone UCHT1) and anti-CD28 (clone CD28.2).
smiles,measurement,setting,value
"COc1cc2c(cc1O)CC[C@@H]1[C@@H]2CC[C@]2(C)[C@@H](O)CC[C@@H]12 [2ME2, 2-Methoxyestradiol]",induction of CD25 mRNA,"activated T cells; 2ME2 50 μM, anti-CD3/28",decreased the induction
same,induction of CD44 mRNA,"activated T cells; 2ME2 50 μM, anti-CD3/28",decreased the induction
same,induction of IFNγ mRNA,"activated T cells; 2ME2 50 μM, anti-CD3/28",decreased the induction
same,induction of IL-2 mRNA,"activated T cells; 2ME2 50 μM, anti-CD3/28",decreased the induction
same,induction of TNFα mRNA,"activated T cells; 2ME2 50 μM, anti-CD3/28",decreased the induction
same,mRNA levels of GATA3,activated T cells; 3 hours post stimulation,normal induction
same,up-regulation of IL-17 mRNA,activated T cells; after 3 hours and 24 hours anti-CD3/28 stimulation,blocking up-regulation
same,upregulation of IL-4 mRNA,activated T cells; in response to TCR ligation,inhibited
same,IL-17 production on re-stimulation,activated T cells; re-stimulation after 5 days activation,blocked
same,NFATc1 in the nuclear fraction of T cells,"NFATc1; 50 μM 2ME2, 30-60 minutes after PMA/iono stimulation",reduce the amount of NFATc1 present in the nuclear fraction
same,NFATc1 in the nuclear fraction of T cells,"NFATc1; 50 μM 2ME2, 24 hours after anti-CD3/28 stimulation",reduce the amount of NFATc1 present in the nuclear fraction
same,NFATc1 in the nuclear fraction of B cells,"NFATc1; 50 μM 2ME2, 24 hours after anti-IgM/CD40-stimulation",reduce the amount of NFATc1 present in the nuclear fraction
same,proliferation of human PBL,human PBL [1],inhibited in a dose-dependent manner
same,Th17 cells positive for IL-17,"Th17 cells; 50 μM 2ME2, PMA/iono 6 hours, vehicle 23.2%",7.3%
same,production of IFNγ in Th17 cells (positive cells),"Th17 cells; PMA/iono 6 hours, vehicle 9.1%",7.3%
same,IFNγ production,human PBL [2]; CD3/28-stimulated human PBL,inhibited
same,IL-2 production,human PBL [2]; CD3/28-stimulated human PBL,inhibited
same,IL-17A production,human PBL [2]; CD3/28-stimulated human PBL,inhibited
same,anti-CD3/28-induced expression of CD25 on CD4+ and CD8+ T cells,human PBL [2]; human PBL,inhibited
